{"source": "paper PMC7568253", "about": "“Evaluation of two xenobiotic reductases from Pseudomonas putida for their suitability for magnetic nanoparticle‐directed enzyme prodrug therapy as a novel approach to cancer treatment” (MicrobiologyOpen, 2020)", "target": "T1, XenA-his (Pseudomonas putida, UniProt Q9R9V9)", "T1 construct": "about 39 kDa, described as monomeric flavoprotein", "T1 sequence (Q9R9V9 1-363)": "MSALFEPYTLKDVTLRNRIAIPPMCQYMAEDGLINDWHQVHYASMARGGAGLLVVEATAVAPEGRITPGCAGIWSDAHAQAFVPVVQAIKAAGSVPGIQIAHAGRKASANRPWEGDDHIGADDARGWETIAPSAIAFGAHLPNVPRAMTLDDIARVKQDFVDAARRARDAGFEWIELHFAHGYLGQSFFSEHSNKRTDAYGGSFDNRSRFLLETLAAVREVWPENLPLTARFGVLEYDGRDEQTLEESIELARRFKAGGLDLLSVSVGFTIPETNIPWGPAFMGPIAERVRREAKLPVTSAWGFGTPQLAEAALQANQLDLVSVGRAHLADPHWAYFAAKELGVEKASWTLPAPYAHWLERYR", "experiment": "reduction of nitro groups tested with purified enzyme", "type": "biochemical", "data": [{"smiles": "O=[N+]([O-])OCC(CO[N+](=O)[O-])O[N+](=O)[O-]", "note": "[nitro-glycerin]", "values": [{"measurement": "reduction of nitro groups tested with purified enzyme", "result": "it was able to reduce the NO2 groups present in the substrate"}]}]}
